Measurements from the supplement of paper PMC4862054.

How the values were obtained:
Conditions in all cases: incubation time: 72 h
[1] = test system: BT-474; experiment: normalised response (% of control), CellTox Green; higher = less cell death (100 = DMSO, 0 = benzethonium chloride kill control)
How it was run: (§1)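 Normalised signals at single concentrations make up the values. They come from breast cancer cell lines seeded (20 µl suspension) into 384-well plates with compound at 5 concentrations in 10-fold steps over a compound-specific 10,000-fold range, incubated 72 h, and read for CellTox Green fluorescence then CellTiter-Glo luminescence. Each plate was normalised to 0.1 % DMSO (100) and a positive kill control (0).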

[2] = test system: BT-549; experiment: as above
How it was run: as §1

[3] = test system: CAL-120; experiment: as above
How it was run: as §1

[4] = test system: CAL-148; experiment: as above
How it was run: as §1

[5] = test system: CAL-51; experiment: as above
How it was run: as §1

[6] = test system: CAL-85-1; experiment: as above
How it was run: as §1

[7] = test system: DU-4475; experiment: as above
How it was run: as §1

[8] = test system: HCC1143; experiment: as above
How it was run: as §1

[9] = test system: HCC1599; experiment: as above
How it was run: as §1

[10] = test system: HCC1937; experiment: as above
How it was run: as §1

[11] = test system: HDQ-P1; experiment: as above
How it was run: as §1

[12] = test system: Hs578T; experiment: as above
How it was run: as §1

[13] = test system: MCF-10A; experiment: as above
How it was run: as §1

[14] = test system: MDA-MB-231; experiment: as above
How it was run: as §1

[15] = test system: MDA-MB-436; experiment: as above
How it was run: as §1

[16] = test system: MDA-MB-453; experiment: as above
How it was run: as §1

[17] = test system: MDA-MB-468; experiment: as above
How it was run: as §1

[18] = test system: BT-474; experiment: normalised response (% of control), CellTiter-Glo; higher = more viable cells (100 = DMSO, 0 = benzethonium chloride kill control)
Method: (§2)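 DSRT, 72 h incubation, CellTox Green / CellTiter-Glo readout. Signal is normalised to DMSO and benzethonium chloride controls. Value is the normalised response at dose 3.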

[19] = test system: BT-549; experiment: as above
Method: as §2

[20] = test system: CAL-120; experiment: as above
Method: as §2

[21] = test system: CAL-148; experiment: as above
Method: as §2

[22] = test system: CAL-51; experiment: as above
Method: as §2

[23] = test system: CAL-85-1; experiment: as above
Method: as §2

[24] = test system: DU-4475; experiment: as above
Method: as §2

[25] = test system: HCC1143; experiment: as above
Method: as §2

[26] = test system: HCC1599; experiment: as above
Method: as §2

[27] = test system: HCC1937; experiment: as above
Method: as §2

[28] = test system: HDQ-P1; experiment: as above
Method: as §2

[29] = test system: Hs578T; experiment: as above
Method: as §2

[30] = test system: MCF-10A; experiment: as above
Method: as §2

[31] = test system: MDA-MB-231; experiment: as above
Method: as §2

[32] = test system: MDA-MB-436; experiment: as above
Method: as §2

[33] = test system: MDA-MB-453; experiment: as above
Method: as §2

[34] = test system: MDA-MB-468; experiment: as above
Method: as §2

[35] = test system: MFM-223; experiment: as above
Method: as §2

[36] = test system: SK-BR-3; experiment: as above
Method: as §2

[37] = test system: MFM-223; experiment: normalised response (% of control), CellTox Green; higher = less cell death (100 = DMSO, 0 = benzethonium chloride kill control)
How it was run: as §1

| Compound | normalised response [1] [%] | normalised response [2] [%] | normalised response [3] [%] | normalised response [4] [%] | normalised response [5] [%] | normalised response [6] [%] | normalised response [7] [%] | normalised response [8] [%] | normalised response [9] [%] | normalised response [10] [%] | normalised response [11] [%] | normalised response [12] [%] | normalised response [13] [%] | normalised response [14] [%] | normalised response [15] [%] | normalised response [16] [%] | normalised response [17] [%] | normalised response [18] [%] | normalised response [19] [%] | normalised response [20] [%] | normalised response [21] [%] | normalised response [22] [%] | normalised response [23] [%] | normalised response [24] [%] | normalised response [25] [%] | normalised response [26] [%] | normalised response [27] [%] | normalised response [28] [%] | normalised response [29] [%] | normalised response [30] [%] | normalised response [31] [%] | normalised response [32] [%] | normalised response [33] [%] | normalised response [34] [%] | normalised response [35] [%] | normalised response [36] [%] | normalised response [37] [%] |
| --- | --- | --- | --- | --- | --- | --- | --- | --- | --- | --- | --- | --- | --- | --- | --- | --- | --- | --- | --- | --- | --- | --- | --- | --- | --- | --- | --- | --- | --- | --- | --- | --- | --- | --- | --- | --- | --- |
| C[C@]12CC[C@@H]3c4ccc(O)cc4C[C@@H](CCCCCCCCC[S+]([O-])CCCC(F)(F)C(F)(F)F)[C@H]3[C@@H]1CC[C@@H]2O (stereo not given in full) [Fulvestrant] (10 nM) | 99.8 | 104 | 101 | 104 | 109 | 102 | 103 | 107 | 105 | 121 | 97.2 | 100 | 104 | 115 | 107 | 79.4 | 86.1 | 104 | 106 | 103 | 105 | 111 | 97.9 | 101 | 105 | 108 | 92.8 | 96.1 | 102 | 109 | 106 | 103 | 103 | 108 | 104 | 105 |  |
| CN[C@@H]1C[C@H]2O[C@@](C)([C@@H]1OC)n1c3ccccc3c3c4c(c5c6ccccc6n2c5c31)C(=O)N[C@H]4O [UCN-01] (100 nM) | 80.8 | 62.6 | 88.8 | 86 | 56.1 | 54.8 | 91.2 | 84.4 | 85.5 | 92.9 | 50.5 | 55 | 75.5 | 40.7 | 77.1 | 90.4 | 76.9 | 33.1 | 52.1 | 37 | 109 | 39 | 44.2 | 77.8 | 63.1 | 14.1 | 54.4 | 68.3 | 19.5 | 24 | 25 | 52 | 62.4 | 48.2 | 70.9 | 39.4 | 80.2 |
| CN(C)/N=N/c1[nH]cnc1C(N)=O [Dacarbazine] (100 nM) | 101 | 96.7 | 101 | 106 | 110 | 105 | 102 | 82.8 | 101 | 106 | 105 | 79.5 | 107 | 101 | 100 | 99.6 | 85.4 | 96.8 | 115 | 101 | 105 | 101 | 106 | 105 | 112 | 92 | 102 | 98.5 | 103 | 100 | 107 | 102 | 103 | 100 | 105 | 107 | 105 |
| O=C(CCCCCCC(=O)Nc1ccc([C@H]2O[C@@H](CSc3nc(-c4ccccc4)c(-c4ccccc4)o3)C[C@@H](c3ccc(CO)cc3)O2)cc1)NO [Tubacin] (100 nM) | 102 | 102 | 105 | 98.1 | 101 | 99.6 | 100 | 99 | 102 | 83.3 | 87.9 | 98.1 | 104 | 110 |  | 99.4 | 82.4 | 94.8 | 96.7 | 112 | 106 | 89.2 | 97.2 | 102 | 96 | 85.2 | 92.8 | 88.2 | 94.6 | 106 | 97 | 96.8 | 96.1 | 95.3 | 97 | 97.1 | 103 |
| CCC(C)(C)C(=O)O[C@H]1C[C@@H](C)C=C2C=C[C@H](C)[C@H](CC[C@@H]3C[C@@H](O)CC(=O)O3)[C@H]21 [Simvastatin] (100 nM) | 97.3 | 59.3 |  | 99.7 | 113 |  | 105 | 91 | 95.1 | 68.8 | 78.8 | 75.5 | 107 | 115 |  | 77.8 | 94.2 | 97.5 | 94.5 | 100 | 107 | 104 | 98.9 | 98.4 | 105 | 89.2 | 99 | 102 | 102 | 111 | 98.6 | 99.7 | 95.5 | 93.7 | 105 | 105 | 102 |
| O=C1CCC(N2C(=O)c3ccccc3C2=O)C(=O)N1 (stereo not given) [Thalidomide] (100 nM) | 102 | 106 | 98.8 | 79.1 | 103 | 107 | 101 | 103 | 96.6 | 87.4 | 95.2 | 94.8 | 109 | 106 | 97.9 | 104 | 127 | 103 | 98.3 | 95.2 | 97.4 | 100 | 95.6 | 102 | 95.9 | 99.6 | 98.1 | 105 | 94.5 | 98.9 | 95.6 | 101 | 101 | 93.6 | 95.7 | 97.7 | 99.8 |
| CCC1(c2ccc(N)cc2)CCC(=O)NC1=O (stereo not given) [Aminoglutethimide] (100 nM) | 101 | 98 | 98.6 |  | 113 | 106 | 98.3 | 96.9 | 104 | 102 | 88.9 | 103 | 99.1 | 98 | 109 | 103 | 119 | 99.1 | 108 | 108 | 105 | 117 | 107 | 100 | 95.3 | 90.5 | 94.7 | 98.5 | 98.3 | 94.1 | 104 | 98.3 | 103 | 100 | 102 | 99.3 | 92.2 |
| C#Cc1cccc(Nc2ncnc3cc(OCCOC)c(OCCOC)cc23)c1 [Erlotinib] (100 nM) | 101 | 93 | 95.6 | 103 | 111 | 86.2 | 102 | 114 | 104 | 107 | 108 | 75.5 | 85.9 |  | 98.9 | 106 | 118 | 98.3 | 105 | 98.1 | 115 | 105 | 100 | 105 | 102 | 102 | 99 | 74 | 100 | 65 | 118 | 102 | 109 | 90.8 | 103 | 112 | 103 |
| C=C(c1ccc(C(=O)O)cc1)c1cc2c(cc1C)C(C)(C)CCC2(C)C [Bexarotene] (100 nM) | 97 | 92.4 | 99.7 | 95.2 | 96.9 | 95.8 | 98.8 | 97.9 | 105 | 105 | 108 | 98.7 | 104 |  | 94.1 | 96.1 | 108 | 109 | 105 | 104 | 101 | 80.1 | 105 | 104 | 104 | 90.8 | 100 | 104 | 95.9 | 91.8 | 101 | 98 | 117 | 104 | 108 | 88.6 | 81.8 |
